Calls of active or inactive are those of the source.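 The calls were made as follows: active = fitted EC50 no more than tenfold above the highest tested concentration; inconclusive = flat fit with 30 to 70% signal loss, or poor fit; inactive = the rest.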
Tested on: Candida albicans CaCi-2 growth (no fluconazole), Alamar Blue
Assay: intrinsic antifungal toxicity in Candida, azole-free – CaCi-2 strain, Alamar Blue fluorescence, counter-screen for fluconazole resistance reversal project, dose response (AID 2387)
Conditions: C. albicans CaCi-2 (fluconazole-resistant clinical isolate) growth without fluconazole, 48 h

| Structure (SMILES) | EC50 |
| --- | --- |
| O=C(NNC1=C(C(=O)C(F)(F)F)CCC1)c1cccc(Cl)c1 | > 16 µM (inactive) |
| CCC(=O)NC(c1cccs1)c1cc([N+](=O)[O-])c2cccnc2c1O (stereo not given) | > 15 µM (inactive) |
| Cc1ccc(-n2nc(C)c3c(C)cc(=O)[nH]c32)cc1 | > 15 µM (inactive) |
| COc1ccc(-c2nnc(NC(=O)c3ccc(S(=O)(=O)N4CCCc5ccccc54)cc3)o2)cc1 | 13.3 µM |
| Cc1cc(O)ccc1NC(=S)NC(=O)c1cncc(Br)c1 | > 16 µM (inactive) |
| O=[N+]([O-])c1cccc(-c2cc(-c3cc(Br)ccc3O)[nH]n2)c1 | > 15 µM (inactive) |
| CC(C)C(=O)NC(c1cccs1)c1cc([N+](=O)[O-])c2cccnc2c1O (stereo not given) | 12.9 µM |
| CCCn1nc([N+](=O)[O-])c(C(C#N)c2nc3ccccc3s2)c(Cl)c1=O (stereo not given) | > 16 µM (inactive) |
| CC(=O)N(O)CCCCCNC(=O)CCC(=O)N(O)CCCCCNC(=O)CCC(=O)N(O)CCCCCN | > 15 µM (inactive) |
| CN1/C(=C/C(=O)c2cccs2)Sc2ccccc21 | > 15 µM (inactive) |
| C=CCNC(=S)N/N=C(\C)c1ccccn1 | 4.96 µM |
| COc1ccc(-n2c(-c3cccc(C)c3[N+](=O)[O-])n[nH]c2=S)cc1 | > 15 µM (inactive) |
| CCCCC(=O)NC(c1ccco1)c1cc(Cl)c2cccnc2c1O (stereo not given) | 10.5 µM |
| Oc1c(CN2CCN(c3ccc(F)cc3)CC2)cc(Cl)c2cccnc12 | 2.74 µM |
| CCc1ccc(C2c3[nH]c4ccccc4c3CCN2C(=O)c2ccc(=O)n(C)n2)cc1 (stereo not given) | > 16 µM (inactive) |
| CCN1/C(=C/C=C/c2oc3ccc(-c4ccccc4)cc3[n+]2CC)Oc2ccc(-c3ccccc3)cc21 | 6.54 µM |
| O=c1[nH]c(-c2ccccn2)nc(C(F)(F)F)c1Br | > 15 µM (inactive) |
| CC1CCN(Cc2c(C(=O)N/N=C/c3cc(Cl)ccc3O)nnn2-c2nonc2N)CC1 | > 15 µM (inactive) |
| CCOC(=O)c1c(-c2ccccc2Cl)cn2ccccc12 | > 16 µM (inactive) |
| CCCCCCSc1nnc2[nH]c(=O)cc(N)n12 | > 15 µM (inactive) |
| C[C@]12CCC3[C@@H](CC[C@H]4C[C@@H](O)CC[C@]34C)C1CCC2=O (stereo not given in full) | > 15 µM (inactive) |
| O=C(Cc1nc2ccccc2s1)c1ccc(O)cc1O | > 16 µM (inactive) |
| O=[N+]([O-])c1ccc(O)c(/C=N/Nc2ccc(Cl)nn2)c1 | 9.85 µM |
| Clc1ccccc1C(c1ccccc1)(c1ccccc1)n1ccnc1 | 1.58 µM |
| Nc1nonc1-n1nnc(C(=O)N/N=C/c2cc(Cl)ccc2O)c1CN1CCCCCC1 | > 15 µM (inactive) |

| Structure (SMILES) | EC50 |
| --- | --- |
| CS/C(=N\S(=O)(=O)c1cccs1)Nc1ccc(Br)cc1F | > 15 µM (inactive) |
| CCC(=O)NC(c1ccc(C)cc1)c1cc([N+](=O)[O-])c2cccnc2c1O (stereo not given) | > 15 µM (inactive) |
| O=c1c2cc(Br)ccc2nc(-c2cccc(C(F)(F)F)c2)n1O | 14.3 µM |
| Cc1cccc(C(=O)CC(=O)c2cc(Cl)ccc2O)c1 | > 15 µM (inactive) |
| CCCCc1c(O)nc(SCC(=O)Nc2cccc3ccccc23)n(-c2ccccc2OC)c1=O | > 16 µM (inactive) |
| CC(=O)NC1CCCN(O)C(=O)/C=C(\C)CCOC(=O)C(NC(C)=O)CCCN(O)C(=O)/C=C(\C)CCOC(=O)C(NC(C)=O)CCCN(O)C(=O)/C=C(\C)CCOC1=O (stereo not given) | 2.05 µM |
| COc1ccc(C(NC(=O)C(C)C)c2ccc3cccnc3c2O)cc1 (stereo not given) | > 15 µM (inactive) |
| Cc1cc2ccccn2c1C(C[N+](=O)[O-])c1c(F)cccc1Cl (stereo not given) | 2.82 µM |
| Cc1ccc(C(=O)c2coc3c2C(=O)C(=O)c2ccccc2-3)cc1 | 10.7 µM |
| CCc1cc(C(=O)NNC(=S)Nc2cc(C)ccc2C)cs1 | > 15 µM (inactive) |
| CC(=O)c1sc(NC(=O)CCS(=O)(=O)c2ccccc2)nc1C | > 15 µM (inactive) |
| CC1(C)COCN1S(=O)(=O)c1ccc(C(=O)Nc2nnc(-c3ccc(Cl)s3)o2)cc1 | > 16 µM (inactive) |
| CC(C)COCc1ccc(O)c2ncccc12 | 16.1 µM |
| COc1cccc(N=Nc2ccc(O)c3ncccc23)c1 | 1.26 µM |
| C[C@@H]1C[C@@H]2O[C@H]2/C=C\C=C\C(=O)Cc2c(Cl)c(O)cc(O)c2C(=O)O1 | > 16 µM (inactive) |
| Cc1ccc(NC(=O)c2ccccc2NS(=O)(=O)c2ccc(Cl)s2)cc1 | > 15 µM (inactive) |
| Cc1cc(=O)oc2cc(Oc3ccc([N+](=O)[O-])cc3[N+](=O)[O-])ccc12 | > 16 µM (inactive) |
| Oc1cccc(C(Nc2nccs2)c2ccc3cccnc3c2O)c1 (stereo not given) | > 16 µM (inactive) |
| Cc1nc2ccccc2cc1OCc1ccc(F)cc1 | > 16 µM (inactive) |
| Cc1nnc(NC(=O)CSc2ncnc3c2cnn3-c2ccccc2C)s1 | > 15 µM (inactive) |
| CCc1ccccc1NC(=S)N=Nc1c(O)n(C)c2ccc(S(=O)(=O)N3CCOCC3)cc12 | > 15 µM (inactive) |
| Cc1ccc(NC2=CC(=O)C(=O)c3ccccc32)cc1 | > 15 µM (inactive) |
| O=C(Nc1nnc(-c2ccc(F)cc2)o1)c1cccc([N+](=O)[O-])c1 | > 15 µM (inactive) |
| Oc1c(C(c2ccccc2Cl)N2CCCC2)ccc2cccnc12 (stereo not given) | 14.3 µM |
| CN1CCN(C(c2ccc(C(F)(F)F)cc2)c2cc(Cl)c3cccnc3c2O)CC1 (stereo not given) | 2.45 µM |

| Structure (SMILES) | EC50 |
| --- | --- |
| CCCCCCOC(=O)C[N+](C)(C)CCOC1CC2CCC1(C)C2(C)C (stereo not given) | > 16 µM (inactive) |
| NC(=O)c1c(NC(=O)c2ccco2)sc2c1CCC2 | > 15 µM (inactive) |
| O=C(Nc1nnc(-c2ccco2)o1)c1cccc(Cl)c1 | > 15 µM (inactive) |
| COC(=O)Cn1nc(-c2ccccc2)c2ccccc21 | > 15 µM (inactive) |
| O=C(Cc1ccc(Cl)cc1)NNC(=S)NC(=O)c1cccs1 | > 16 µM (inactive) |
| O=C1/C(=C/c2cccnc2)CCc2c1[nH]c1ccccc21 | > 15 µM (inactive) |
| C[C@@H]1CC[C@@]2(NC1)O[C@H]1C[C@H]3[C@@H]4CC=C5C[C@@H](O)CC[C@]5(C)[C@H]4CC[C@]3(C)[C@H]1[C@@H]2C | > 16 µM (inactive) |
| O=C(N/N=C/c1sc2ccccc2c1O)c1cccc2ccccc12 | > 16 µM (inactive) |
| O=C1NC(=O)/C(=C\c2ccc(Br)o2)S1 | > 15 µM (inactive) |
| COC(=O)c1ccc(COc2ccc(/C=C(\C#N)c3nc4ccccc4[nH]3)cc2OC)o1 | > 16 µM (inactive) |
| C/C(=N\NC(=O)c1cc(C2CC2)nc2ccccc12)c1ccc(O)cc1O | > 16 µM (inactive) |
| O=C(c1cc2c(s1)CCCCC2)N1CCN(c2ncccn2)CC1 | > 16 µM (inactive) |
| O=[N+]([O-])c1ccc(O)c(P(=O)(c2ccccc2)c2ccccc2)c1 | > 15 µM (inactive) |
| C[n+]1c2n(c3ccccc31)N=C(c1ccc(-c3ccccc3)cc1)CS2 | > 16 µM (inactive) |
| Cc1cc(Nc2ccccc2)nc(NCc2ccccc2)n1 | > 15 µM (inactive) |
| Cc1cc(C(=O)N/N=C/c2cc(Cl)cc([N+](=O)[O-])c2O)c2ccccc2n1 | > 15 µM (inactive) |
| Cc1cccc(C(=O)NNC2=C(C(=O)C(F)(F)F)CCC2)c1O | > 16 µM (inactive) |
| O=C(Nc1nnc(-c2ccncc2)o1)c1ccc2ccccc2c1 | > 15 µM (inactive) |
| Cc1cc(C)cc(OCC(=O)NNC(=S)NC(=O)C2CC2)c1 | > 15 µM (inactive) |
| CN1CCN(C(c2ccc(C(F)(F)F)cc2)c2ccc3cccnc3c2O)CC1 (stereo not given) | 8.31 µM |
| c1ccc2c(c1)CCN(c1ncnc3c1[nH]c1ccccc13)C2 | > 15 µM (inactive) |
| O=Nc1c(-c2cccc([N+](=O)[O-])c2)nc2ncccn12 | 5.3 µM |
| Fc1cccc(-n2cc(-c3ccccc3)c3c(=S)nc[nH]c32)c1 | > 15 µM (inactive) |
| CCCOc1ccc(C(=O)NNC(=S)NC(=O)CC)cc1 | > 15 µM (inactive) |
| [O-][N+]1=c2ccc(Nc3ccccc3)cc2=NC12CCCCC2 | > 15 µM (inactive) |

| Structure (SMILES) | EC50 |
| --- | --- |
| Cc1ccc(/C=C/C(=O)c2ccccc(=O)c2O)cc1C | 13 µM |
| Cc1ccc(OCC(=O)NNC(=S)NC(=O)C2CC2)c(C)c1 | > 15 µM (inactive) |
| Cc1ccc(C)c(-c2nnc(NC(=O)c3ccco3)o2)c1 | > 16 µM (inactive) |
| CCCCC(=O)NC(c1ccccc1)c1ccc2cccnc2c1O (stereo not given) | > 15 µM (inactive) |
| CCCC(=O)NC(c1ccc(N(C)C)cc1)c1ccc2cccnc2c1O (stereo not given) | > 16 µM (inactive) |
| CCN1/C(=C/c2sc(-c3ccccc3C)c[n+]2C)Sc2ccccc21 | > 15 µM (inactive) |
| O=C(N/N=C/c1ccccc1O)c1cccc(C(F)(F)F)c1 | > 15 µM (inactive) |
| CCC(C)c1ccc(O)c(NC(=S)NC(=O)c2cccnc2)c1 (stereo not given) | > 15 µM (inactive) |
| Nc1c(S(=O)(=O)c2ccccc2)c2nc3ccccc3nc2n1CCN1CCOCC1 | > 16 µM (inactive) |
| CCCn1nnnc1NC(=O)c1ccc2ccccc2c1 | > 15 µM (inactive) |
| COc1ccc(-c2nnc(NC(=O)c3ccc(S(=O)(=O)N4CCc5ccccc5C4)cc3)o2)cc1 | > 15 µM (inactive) |
| CCOc1ccc(/C=C/C2=CC(C)(C)NC(=S)N2)cc1 | > 15 µM (inactive) |
| Cc1cc(Br)ccc1OCC(=O)NNC(=O)C(=O)Nc1ccccc1 | > 15 µM (inactive) |
| O=C(N/N=C/c1cc([N+](=O)[O-])ccc1O)c1ccc(COc2ccc3c(c2)CCC3)o1 | 12.3 µM |
| COc1ccc(/C=C/c2cc(-c3ccc(C)cc3)o[n+]2C)cc1 | > 16 µM (inactive) |
| COc1cccc(/C=N/Nc2ncnc3scc(-c4ccccc4)c23)c1O | 6.58 µM |
| C=CCn1c(N)nc2ccccc21 | > 16 µM (inactive) |
| CCCC(=O)NC(c1ccccc1OC)c1ccc2cccnc2c1O (stereo not given) | > 16 µM (inactive) |
| CN(C)S(=O)(=O)Oc1cccc(C(=O)Nc2ccc(Cl)c(Cl)c2)c1 | > 15 µM (inactive) |
| O=Cc1ccc(O)c2ncccc12 | 6.24 µM |
| CC1=C(CC[C@@H](C)CO)OC2CC3C4CCC5CC(O)CCC5(C)C4CC(=O)C3(C)C12 (stereo not given in full) | > 15 µM (inactive) |
| O=[N+]([O-])c1c(C(Cl)Cl)nn(-c2ccc(Cl)cc2)c1N1CCCCC1 | > 16 µM (inactive) |
| O=C(Nc1sc2c(c1C(=O)c1ccc(Cl)cc1)CCCC2)c1cccnc1 | > 15 µM (inactive) |
| Cc1c(OCC(=O)NCC(O)c2ccccc2)ccc2c(-c3ccccc3)cc(=O)oc12 (stereo not given) | > 16 µM (inactive) |
| CS(=O)(=O)NN1C(=O)c2ccccc2NC1c1cccc2cccnc12 (stereo not given) | > 16 µM (inactive) |
